System: Plasmodium falciparum
Experiment: Inhibitory concentration against multidrug-resistant Plasmodium falciparum Dd2.
Format: functional, organism-based

## Cc1ccc(CC(=O)Nc2ccc(NC(=O)/C=C/c3ccc(-c4ccc(OC(F)(F)F)cc4)o3)cc2C(=O)c2ccccc2)cc1
  IC50: 210 nM

## Cc1ccc(CC(=O)Nc2ccc(NC(=O)/C=C/c3ccc(-c4cccc([N+](=O)[O-])c4)o3)cc2C(=O)c2ccccc2)cc1
  IC50: 590 nM

## C=Cc1ccc(-c2ccc(/C=C/C(=O)Nc3ccc(NC(=O)Cc4ccc(C)cc4)c(C(=O)c4ccccc4)c3)o2)cc1
  IC50: 85 nM

## Cc1ccc(CC(=O)Nc2ccc(NC(=O)/C=C/c3ccc(-c4ccccc4[N+](=O)[O-])o3)cc2C(=O)c2ccccc2)cc1
  IC50: 670 nM

## Cc1ccc(CC(=O)Nc2ccc(NC(=O)/C=C/c3ccc(-c4ccc(C)cc4)o3)cc2C(=O)c2ccccc2)cc1
  IC50: 120 nM

## Cc1ccc(CC(=O)Nc2ccc(NC(=O)/C=C/c3ccc(-c4ccc(Br)cc4)o3)cc2C(=O)c2ccccc2)cc1
  IC50: 125 nM

## Cc1ccc(CC(=O)Nc2ccc(NC(=O)/C=C/c3ccc(-c4ccc(F)cc4)o3)cc2C(=O)c2ccccc2)cc1
  IC50: 320 nM

## CCOc1ccc(-c2ccc(/C=C/C(=O)Nc3ccc(NC(=O)Cc4ccc(C)cc4)c(C(=O)c4ccccc4)c3)o2)cc1
  IC50: 300 nM

## Cc1ccc(CC(=O)Nc2ccc(NC(=O)/C=C/c3ccc(-c4ccc([N+](=O)[O-])cc4)o3)cc2C(=O)c2ccccc2)cc1
  IC50: 75 nM

## Cc1ccc(CC(=O)Nc2ccc(NC(=O)/C=C/c3ccc(-c4ccc5ccccc5c4)o3)cc2C(=O)c2ccccc2)cc1
  IC50: 200 nM

## COc1ccc(-c2ccc(/C=C/C(=O)Nc3ccc(NC(=O)Cc4ccc(C)cc4)c(C(=O)c4ccccc4)c3)o2)cc1
  IC50: 130 nM

## CCCOc1ccc(-c2ccc(/C=C/C(=O)Nc3ccc(NC(=O)Cc4ccc(C)cc4)c(C(=O)c4ccccc4)c3)o2)cc1
  IC50: 750 nM

## Cc1ccc(CC(=O)Nc2ccc(NC(=O)/C=C/c3ccc(-c4ccc(C(C)(C)C)cc4)o3)cc2C(=O)c2ccccc2)cc1
  IC50: 300 nM

## Cc1ccc(CC(=O)Nc2ccc(NC(=O)/C=C/c3ccc(-c4ccc(Cl)cc4)o3)cc2C(=O)c2ccccc2)cc1
  IC50: 145 nM

## CCc1ccc(-c2ccc(/C=C/C(=O)Nc3ccc(NC(=O)Cc4ccc(C)cc4)c(C(=O)c4ccccc4)c3)o2)cc1
  IC50: 88 nM

## Cc1ccc(CC(=O)Nc2ccc(NC(=O)/C=C/c3ccc(-c4cccc5ccccc45)o3)cc2C(=O)c2ccccc2)cc1
  IC50: 1000 nM

## Cc1ccc(CC(=O)Nc2ccc(NC(=O)/C=C/c3ccc(-c4ccccc4)o3)cc2C(=O)c2ccccc2)cc1
  IC50: 415 nM

## CSc1ccc(-c2ccc(/C=C/C(=O)Nc3ccc(NC(=O)Cc4ccc(C)cc4)c(C(=O)c4ccccc4)c3)o2)cc1
  IC50: 84 nM

From ChEMBL document CHEMBL1135339, “Structure-activity relationships of novel anti-malarial agents. Part 4: N-(3-benzoyl-4-tolylacetylaminophenyl)-3-(5-aryl-2-furyl)acrylic acid amides” (Bioorg Med Chem Lett, 2002)
